Consider 23 molecules from patent US7705053B2, “Benzamide derivative” (Chugai Seiyaku Kabushiki Kaisha, priority 2003, dated 2010).

Broadly, the inhibition is the drop in the measured response relative to a control, in per cent.

A value given as a limit tells only on which side of the number the result lay.

For series [1], the system named is Human lung carcinoma cell line Calu-6. The series is described as follows: Cell proliferation assay (Calu-6). As to conditions: Calu-6, 72 hours, WST-1, read-out: 50% growth inhibition concentration (IC50 value) Calu-6. The class given is cell-based. How it is done: (§1) The test compound was serially diluted with DMSO, and then diluted 1:50 with a Ca^2+,Mg^2+-free phosphate-buffered physiological saline. The resulting dilution (10 μl) was dispensed into a 96-well plate. Human umbilical vein endothelial cells (HUVEC, purchased from Clonetics) were suspended in PRMI 1640 medium supplemented with 10% bovine fetal serum, 30 μg/mL vascular endothelial cell growth supplement, and 50 μg/mL heparin. Human lung carcinoma cell line Calu-6 was suspended in MEM medium supplemented with 10% bovine fetal serum, 0.1 mM nonessential amino acid, and 1 mM sodium pyruvate. Each cell suspension (190 μL) was dispensed into the plate containing the test compound such that the cell count per well was 3,000 cells. The plate was incubated in a CO2 incubator (37° C., 5% CO2). After 72 hours, 20 μL WST-1 (produced by Roche Diagnostics) was added to each well and, after 2 hours of incubation, the absorbance at 450 nm (reference wavelength: 650 nm) was measured. The 50% growth inhibition concentration (IC50 value) of the test compound was calculated from the inhibition rate obtained when the test compound was added, in comparison with the reference value obtained when the test compound was not added.
(§2) The IC50 values, for HUVEC and Calu-6, of representative examples of the compounds of the present invention are shown in Table 1.
On the technique in general: Tetrazolium assays rely on reduction of a dye to a coloured formazan, in cell work by metabolically active cells.

The test system of another series is HUVEC. The series is described as follows: Tube formation assay. Conditions: Homo sapiens, 264 h, 11 days of incubation, CD31 staining, read-out: capillary-like tube formation inhibition rates (%). In kind it is cell-based. How it is done:
An angiogenesis measurement kit (produced by KURABO) was charged with the test compound at final concentration of 20 μM, and incubated in a CO2 incubator (37° C., 5%). After 11 days of incubation, capillary-like tubes formed were fixed with 70% ethanol and visualized with a CD31 staining kit (produced by KURABO). Under a microscope, stain images of the wells were photographed, stored as an image file, and measured for the area of capillary-like tube formation by use of angiogenesis quantitative determination software of KURABO. The inhibition rates (%) of the test compound-charged wells were calculated, with the control taken as 100%.
The capillary-like tube formation inhibiting rates at 20 μM, against HUVEC, of representative examples of the compounds of the present invention are shown in Table 2.

Series [2] has as its system Human umbilical vein endothelial cells (HUVEC). The series is described as follows: Cell proliferation assay (HUVEC). The class given is cell-based. Conditions: 72 hours, WST-1, read-out: 50% growth inhibition concentration (IC50 value) HUVEC. The procedure:
as §1, §2

Series [3] in a line: Body weight and toxicity findings in the antitumor test. The class given is in vivo. As to conditions: 600 mg/kg, orally once daily for 11 days. The procedure:
(§3) A cell suspension of human lung carcinoma cell line Calu-6 was prepared using Hanks' balanced salt solution, and 5.0×10^6 of the cells were implanted subcutaneously in the flank region of female Balb/c nude mice. When the volume of the tumor reached 200 to 250 mm^3, the test compound was orally administered once daily for 11 days. The tumor volume was calculated from the equation π/6×(long diameter×short diameter×thickness). The tumor growth inhibition rate was calculated from changes in the tumor volume in the test compound treatment group relative to changes in the tumor volume in the control group.
(§4) The results of the antitumor test of compound 1-1-1 and compound 2-1-1, as representative examples of the compounds of the present invention, are shown in FIGS. 1-(A) and 1-(B) and 2-(A) and 2-(B).

For series [4], the system named is blood vessels in the tumor tissue (Calu-6 xenograft). The series is described as follows: Measurement of the number of blood vessels in the tumor. As to conditions: 600 mg/kg, orally once daily for 11 days, mice, relative to control group. The class given is in vivo, Balb/c nude mice. The source says:
Measurement of the Number of Blood Vessels in the Tumor
5.0×10^6 Cells of human lung carcinoma cell line Calu-6 were implanted subcutaneously in the flank region of female Balb/c nude mice. When the volume of tumor reached 200 to 250 mm^3, the test compound was orally administered once daily for 11 days. Twenty-four hours after the final administration, xenograft tissue was removed from the mice, and a middle portion of the long diameter of the tumor was embedded, as a block 2 to 3 mm thick, in O.C.T. Compound, and preserved as a frozen tissue specimen. Frozen sections were prepared, and blood vessels in the tumor tissue were stained by an immunohistological method using anti-mouse CD31 antibody. The stained tissue was photographed under a microscope, and the images were stored as an image file. The number of the stained blood vessels was measured by Image Pro (Promega). The decrease rate of blood vessel density was calculated as a decrease rate relative to the blood vessel density in the control group.
The decrease rates of the blood vessel density in the tumor tissue following treatment with 600 mg/kg of compound 1-1-1 and compound 2-1-1, as representative examples of the compounds of the present invention, are shown in Table 3.

For series [5], the system named is human lung carcinoma cell line Calu-6. The series is described as follows: Antitumor test (Calu-6 xenograft). In kind it is in vivo, Balb/c nude mice. As to conditions: 600 mg/kg, orally once daily for 11 days, mice. How it is done:
as §3, §4

For the molecule `COc1ccc(C(N)=O)cc1C(=O)Nc1ccc(F)cc1F` [Compound 1-3-24, 3-N-(2,4-difluorophenyl)-4-methoxyisophthalamide], the IC50 in series [1] was more than 50 µM; in series [2] it was 5.19 µM. The inhibition at 20 µM in the series on HUVEC was found to be 28%.
Consider `COc1ccc(C(N)=O)cc1C(=O)Nc1cccc(Cl)c1Cl` [Compound 1-3-2, 3-N-(2,3-dichlorophenyl)-4-methoxyisophthalamide], for which the IC50 in series [1] is more than 50 µM; in series [2], 0.15 µM.
As to `COc1ccc(C(N)=O)cc1/C=C/c1ccc(OC(F)(F)F)cc1` [Compound 2-1-1, 4-methoxy-3-[(E)-2-(4-trifluoromethoxyphenyl)vinyl]benzamide], the “body weights of the mice” value in series [3] is given as “no decreases in the body weights of the mice were observed”. Further, in series [3], the findings of toxicity entry is on record as “no findings of toxicity observed”. The IC50 in series [1] was more than 100 µM; in series [2], 0.17 µM. Besides, the “Decrease (%) in intratumor blood vessel density” value in series [4] is 37%. Further, the “tumor growth inhibition rates (TGI)” value in series [5] was determined as 75%. For the same molecule, the inhibition at 20 µM in the series with HUVEC was determined as 93%.
On to `COc1ccc(C(N)=O)cc1C(=O)Nc1ccc(Br)cc1Br` [Compound 1-3-45, 3-N-(2,4-dibromophenyl)-4-methoxyisophthalamide], for which the IC50 in series [1] was more than 50 µM; in series [2], 0.05 µM. The inhibition at 20 µM in the series with HUVEC came out at 31%.
Regarding `COc1ccc(C(N)=O)cc1C(=O)Nc1cccc(C(F)(F)F)c1F` [Compound 1-3-8, 3-N-(2-fluoro-3-trifluoromethylphenyl)-4-methoxyisophthalamide], the IC50 is more than 50 µM in series [1] and 0.35 µM in series [2].
In the case of `COc1ccc(C(N)=O)cc1C(=O)Nc1ccc(Cl)cc1` [Compound 1-1-1, 3-N-(4-chlorophenyl)-4-methoxyisophthalamide], in series [3], the “body weights of the mice” value was “no decreases in the body weights of the mice were observed” and the findings of toxicity result is given as “no findings of toxicity observed”. In series [1], the IC50 was more than 100 µM. The “Decrease (%) in intratumor blood vessel density” value in series [4] turned out to be 44%. Moreover, the “tumor growth inhibition rates (TGI)” value in series [5] was found to be 82%. Also, the inhibition at 20 µM in the series on HUVEC amounted to 43%. Further, in series [2], the IC50 turned out to be 2.27 µM.
As to `CNC(=O)c1ccc(OC)c(/C=C/c2ccc(OC(F)(F)F)cc2)c1` [Compound 2-2-2, 4-methoxy-N-methyl-3-[(E)-2-(4-trifluoromethoxyphenyl)-vinyl]-benzamide], the results for the IC50 in series [1] and in series [2] were more than 50 µM and 2.27 µM, respectively. For the same molecule, the inhibition at 20 µM in the series on HUVEC was 77%.
The corresponding values for `COc1ccc(C(N)=O)cc1C(=O)Nc1cccc2ncccc12` [Compound 1-3-39, 4-methoxy-3-N-quinolin-5-yl-isophthalamide] are more than 25 µM, 2.36 µM and 20%.
The like results for `COc1ccc(C(N)=O)cc1C(=O)Nc1ccccc1C` [Compound 1-3-23, 4-methoxy3-N-o-tolylisophthalamide] were, in that order, more than 50 µM, 2.85 µM and 27%.
The corresponding values for `COc1ccc(C(N)=O)cc1C(=O)Nc1ccc(OC(F)(F)F)cc1` [Compound 1-2-1, 3-N-(4-trifluoromethoxyphenyl)-4-methoxyisophthalamide] are more than 100 µM, 2.4 µM and 68%.
As for `COc1ccccc1NC(=O)c1cc(C(N)=O)ccc1OC` [Compound 1-3-10, 4-methoxy-3-N-(2-methoxyphenyl)isophthalamide], the IC50 in series [1] is more than 50 µM; in series [2], 0.76 µM. The inhibition at 20 µM with HUVEC was determined as 46%.
The like results for `COc1ccc(C(N)=O)cc1C(=O)Nc1ccccc1OC(F)(F)F` [Compound 1-3-5, 4-methoxy-3-N-(2-trifluoromethoxyphenyl)-isophthalamide] were, in that order, more than 50 µM, 0.14 µM and 91%.
The like results for `COc1ccc(C(N)=O)cc1C(=O)Nc1cc(C)c(F)cc1Cl` [Compound 1-3-17, 3-N-(2-chloro-4-fluoro-5-methylphenyl)-4-methoxyisophthalamide] were, in that order, more than 25 µM, 1.2 µM and 80%.
`COc1ccc(C(N)=O)cc1C(=O)Nc1cccc2c1CCCC2` [Compound 1-3-6, 4-methoxy-3-N-(5,6,7,8-tetrahydronaphthalen-1-yl)isophthalamide]: the IC50 was more than 50 µM in series [1] and 0.24 µM in series [2]. For the same molecule, the inhibition at 20 µM with HUVEC turned out to be 46%.
The corresponding values for `COc1ccc(C(=O)NC2CCCC2)cc1/C=C/c1ccc(OC(F)(F)F)cc1` [Compound 2-2-1, N-cyclopentyl-4-methoxy-3-[(E)-2-(4-trifluoromethoxy-phenyl)vinyl]benzamide] are more than 50 µM, 3.35 µM and 60%.
For the molecule `COc1ccc(C(N)=O)cc1C(=O)Nc1ccccc1Cl` [Compound 1-3-7, 3-N-(2-chlorophenyl)-4-methoxyisophthalamide], the figures for the IC50 in series [1] and in series [2] were more than 50 µM and 0.28 µM, respectively. Further, the inhibition at 20 µM with HUVEC is 67%.
The like results for `COc1ccc(C(N)=O)cc1C(=O)Nc1ccc(C(F)(F)F)cc1` [Compound 1-3-21, 4-methoxy-3-N-(4-trifluoromethylphenyl)isophthalamide] were, in that order, more than 50 µM, 5.1 µM and 71%.
The corresponding values for `COc1ccc(C(N)=O)cc1C(=O)Nc1cc(C(F)(F)F)ccc1Cl` [Compound 1-3-16, 3-N-(2-chloro-5-trifluoromethylphenyl)-4-methoxyisophthalamide] are more than 50 µM, 4.6 µM and 80%.
The corresponding values for `COc1cc(NC(=O)c2cc(C(N)=O)ccc2OC)cc(OC)c1` [Compound 1-3-18, 3-N-(3,5-dimethoxyphenyl)-4-methoxyisophthalamide] are more than 50 µM, 1.25 µM and 29%.
With `CCNC(=O)c1ccc(OC)c(/C=C/c2ccc(Cl)cc2)c1` [Compound 2-2-9, 3-[(E)-2-(4-chlorophenyl)-vinyl]-N-ethyl-4-methoxy-benzamide], the IC50 in series [1] was more than 25 µM; in series [2] it was 1.41 µM. Moreover, the inhibition at 20 µM in the series on HUVEC worked out at 79%.
With `COc1ccc(C(N)=O)cc1C(=O)Nc1ccc(Br)cc1F` [Compound 1-3-1, 3-N-(4-bromo-2-fluorophenyl)-4-methoxy-isophthalamide], the IC50 in series [1] is more than 50 µM; in series [2], 0.19 µM.
On to `COc1ccc(C(N)=O)cc1C(=O)Nc1ccc(Br)cc1Cl` [Compound 1-3-41, 3-N-(4-bromo-2-chlorophenyl)-4-methoxyisophthalamide], for which the IC50 was more than 50 µM in series [1] and 0.04 µM in series [2]. The inhibition at 20 µM in the series with HUVEC was 82%.
For `COc1ccc(C(N)=O)cc1C(=O)Nc1ccccc1F` [Compound 1-3-12, 3-N-(2-fluorophenyl)-4-methoxyisophthalamide], the IC50 in series [1] is more than 50 µM; in series [2], 2.54 µM. Besides, the inhibition at 20 µM with HUVEC turned out to be 27%.
